Laboratory results as given in patent publication US6403299B1, “DEAH-box proteins” (Aventis Research & Technologies GmbH & Co. KG, priority 1995, dated 2002).
Where two headings read alike, the source gives them in different places.

Legend:
Type in all cases: cell-based, mouse
[1] = tested on: A20.2J cells; test: Proliferation test 1 (cell counting, Eosin staining), A20.2J cells
Description: A20.2J is a subline of the mouse B-cell lymphoma A20 (ATCC TIB-208) and described as a fusion line in the ATCC for the cell line LS 102.9 (ATCC HB-97). […] The cells were easy to culture as a nonadherent-growing cell line. 5×10^5 cells were incubated in 5 ml of Iscove medium in 6-well plates (Greiner) for 48 hours at 37° C. and 10% CO2. One well was set up as a positive reference value: for A20.2J: cells in Iscove medium Test substances in various concentrations were pipetted into the cells in the remaining wells. After the incubation time, the cells were resuspended in the well, and 100 μl of cell suspension were taken and diluted in 1% strength Eosin solution (1 g of Eosin yellowish from Riedel de Häen dissolved in 100 ml of sterile isotonic saline solution). The cells were counted in a Neubauer counting chamber and the fraction of dead cells (stained by Eosin) determined. The substance-induced alteration of proliferation was calculated relative to the respective positive control.

[2] = tested on: A20.2J cells; test: Proliferation test 2 (3H-thymidine incorporation), A20.2J cells
Description: (§1) 4×10^3 cells were pipetted into a volume of 100 μl of Iscove medium in 96-well round-bottom microtiter plates (Nunc). Test substances were applied in twice the concentration starting from the desired test concentration and 100 μl of this solution was pipetted into the cells. The plates were incubated for 48 hours at 37° C. and 10% CO2. The proliferation was determined by radiolabeling the DNA of dividing cells. To do this, after the incubation time 25 μl of ^3H-thymidine (10 μCi/ml; specific activity 29 Ci/mmol; Amersham) was added to each well and the mixture was incubated for a further 16 hours. To evaluate the test, the plates were harvested on glass fiber filters (Pharmacia) by means of a cell harvester (Skatron), unincorporated ^3H-thymidine being collected in separate waste flasks, and only cellular, DNA-bound radioactivity being measured. The filters were heat-sealed in plastic bags and after addition of 10 ml of scintillator (Pharmacia) sealed in counting cassettes for measurement. Measurement was carried out in a beta-counter (beta-plate system 1206 from Wallac). As indicated under Test 1, the alteration in proliferation of the test substances was calculated against the respective positive controls.
(§2) Antiproliferative substances known from the literature were tested at different concentrations (as described in proliferation test 2) for their antiproliferative properties on A20R cells and A20.2J.
(§3) The function of MDR proteins as secretory pumps can be inhibited by calcium channel blockers, which leads to an accumulation of the substance in the cell. Calcium channel blockers known from the literature and also MDR-associated substances were therefore added to both cell lines in order to check whether the resistant line overexpressed MDR proteins.
(§4) The same test mixture was chosen in order to check whether A77 1726 is an MDR-transported molecule. Numbers are % inhibition of proliferation.

[3] = tested on: A20R cells; test: Proliferation test 2 (3H-thymidine incorporation), A20R cells
Description: as §1, §2, §3, §4

[4] = tested on: A20R cells; test: Proliferation test 1 (cell counting, Eosin staining), A20R cells
Description: Every 2nd or 3rd day, the cells were passaged in fresh medium to which the same concentration of A77 1726 was added. After culturing for 5 days, growth of the cells and a low dying-off rate (maximum 30% dead cells) was detectable, so the concentration of A77 1726 was increased stepwise. If the proliferation of the cells stagnated, the concentration of the last passage was used. […] 5×10^5 cells were incubated in 5 ml of Iscove medium in 6-well plates (Greiner) for 48 hours at 37° C. and 10% CO2. One well was set up as a positive reference value: for […]: cells in Iscove medium+100 μM A77 1726 Test substances in various concentrations were pipetted into the cells in the remaining wells. After the incubation time, the cells were resuspended in the well, and 100 μl of cell suspension were taken and diluted in 1% strength Eosin solution (1 g of Eosin yellowish from Riedel de Häen dissolved in 100 ml of sterile isotonic saline solution). The cells were counted in a Neubauer counting chamber and the fraction of dead cells (stained by Eosin) determined. The substance-induced alteration of proliferation was calculated relative to the respective positive control.

C/C(O)=C(\C#N)C(=O)Nc1ccc(C(F)(F)F)cc1 [A77 1726]
IC50 ([1]; Mus musculus, A20/2J, proliferation test 1, A77 1726 analogs, read-out: IC50 value of A20.2J): 2 to 3 µM
IC50 ([1]; Mus musculus, read-out: 50% inhibition of the proliferation of the cells, A20.2J): 2 µM
% inhibition of proliferation ([2]; A20.2J + 1.6 μM A77 1726, verapamil 0 nM): 16.4%
% inhibition of proliferation ([3]; A20R + 62.5 μM A77 1726, verapamil 0 nM): 10.3%
transport by MDR proteins ([3]; A20.2J and A20R cells, with verapamil 0-400 nM): not transported by MDR proteins
IC50 ([4]; Mus musculus, proliferation test 1, A77 1726 analogs): 130 µM

Cc1c(-c2ccc(-c3ccccc3F)cc2)nc2ccc(F)cc2c1C(=O)[O-].[Na+] [Brequinar Na^+ salt, brequinar]
IC50 ([1]; proliferation test 1, brequinar, read-out: IC50 value of A20.2J): 0.2 µM
cross-resistance of A20R cells (growth behavior) compared with A20.2J [4]: cross-resistance
IC50 ([4]; proliferation test 1, brequinar): 50 to 75 µM

N.N.[Cl][Pt][Cl] [Cisplatin]
% inhibition of A20.2J ([2]; 10 μM): 44.7%
% inhibition of A20R ([3]; 10 μM): 91.1%

CN(Cc1cnc2nc(N)nc(N)c2n1)c1ccc(C(=O)N[C@@H](CCC(=O)O)C(=O)O)cc1 [Methotrexate]
inhibition at 0.15 µM ([2]; Mus musculus, A20/2J; 0.15 μM): 75.9%
inhibition at 0.15 µM ([3]; Mus musculus; 0.15 μM): 65.2%

COc1c(C)c2c(c(O)c1C/C=C(\C)CCC(=O)O)C(=O)OC2 [Mycophenolic acid]
inhibition at 0.15 µM ([2]; Mus musculus, A20/2J; 0.15 μM): 89.8%
inhibition at 0.15 µM ([3]; Mus musculus; 0.15 μM): 76.8%

COc1cccc2c1C(=O)c1c(O)c3c(c(O)c1C2=O)C[C@@](O)(C(C)=O)C[C@@H]3O[C@H]1C[C@H](N)[C@H](O)[C@H](C)O1 [daunorubicin]
inhibition at 0.3 µM ([2]; Mus musculus, A20/2J, read-out: % inhibition of proliferation): 10.7%
inhibition at 0.3 µM ([3]; Mus musculus, read-out: % inhibition of proliferation): 6.8%

COc1cccc2c1C(=O)c1c(O)c3c(c(O)c1C2=O)C[C@@](O)(C(=O)CO)C[C@@H]3O[C@H]1C[C@H](N)[C@H](O)[C@H](C)O1 [doxorubicin]
inhibition at 0.3 µM ([2]; Mus musculus, A20/2J; read-out: % inhibition of proliferation): 2.7%
inhibition at 0.3 µM ([3]; Mus musculus; read-out: % inhibition of proliferation): 9.1%

Cc1oncc1C(=O)Nc1ccc(C(F)(F)F)cc1 [leflunomide]
ED50 ([1]; murine A20.2J cells): 4 μ
EC50 ([1]; original cell line A20.2J, read-out: ED50 (the source's name)): 4 µM
times higher leflunomide concentrations tolerated by A20R than by A20.2J ([4]; A20R versus A20.2J): 30-40 times
ED50 ([4]; murine A20.2J cells resistant to high levels of leflunomide): 130 μ
EC50 ([4]; resistant subline A20R, read-out: ED50 (the source's name)): 130 µM

Cyclosporin A
% inhibition of A20.2J ([2]; 0.25 μM): 69.9%
% inhibition of A20R ([3]; 0.25 μM): 77.5%
